Source: patent US6867320B2, “Substituted phenylalkanoic acid derivatives and use thereof” (Asahi Kasei Pharma Corporation, priority 2002, dated 2005)

What was measured:
[1] = test system: PGE2 production from IL-1β-stimulated MG-63 cells; assay: Suppressing action on PGE2 production from IL-1β-stimulated MG-63 cells; assay type: cell-based; settings: Homo sapiens, IL-1β 1 ng/ml, 18 hours, read-out: PGE2 production suppression ratio
Procedure, shortened: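 PGE2 in 18 h supernatants was quantified by EIA and expressed as % suppression relative to IL-1β-only and unstimulated controls. Cells were the MG-63 osteosarcoma line, plated at 2×10^4/well, given compound in 0.5% FBS EMEM, then 1 ng/ml IL-1β final.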

[2] = test system: PGD2 production from IgE-stimulated RBL-2H3 cells; assay: Suppressing action on PGD2 production from IgE-stimulated RBL-2H3 cells; assay type: cell-based; settings: Rattus norvegicus, 10 min, IgE/DNP-BSA stimulated RBL-2H3 cells, read-out: PGD2 production suppression ratio
Procedure, shortened: (§1)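 Rat RBL-2H3 mastocytoma cells, sensitized 30 min with anti-DNP-BSA IgE, then given test compound in 0.5% FBS medium and stimulated with DNP-BSA (100 ng/ml final). Supernatant PGD2 and LTB4 were measured by EIA after 10 min. Suppression ratio is calculated against unstimulated and stimulant-only controls.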

[3] = test system: LTB4 production from IgE-stimulated RBL-2H3 cells; assay: Suppressing action on LTB4 production from IgE-stimulated RBL-2H3 cells; assay type: cell-based; settings: Rattus norvegicus, 10 min, IgE/DNP-BSA stimulated RBL-2H3 cells, read-out: LTB4 production suppression ratio
Procedure, shortened: as §1

[4] = test system: zymosan-stimulated footpad edema; assay: Mouse zymosan-stimulated footpad edema reaction; assay type: in vivo; settings: ICR female mice, oral 0.1 to 500 mg/kg, compared with positive control group
Procedure, shortened: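 Female ICR mice (6–7 weeks, n=8) dosed orally at 0.1 to 500 mg/kg in 0.5% methylcellulose; 1 h later zymosan (1 mg/ml, 0.02 ml) injected s.c. into right hind footpad. Edema volume at 1 and 2 h gave AUC to 2 h; suppression (%) calculated against positive control AUC.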

[5] = test system: IgE-stimulated footpad edema; assay: Mouse IgE-stimulated footpad edema reaction; assay type: in vivo; settings: C57BL/6 male mice, oral 0.1 to 500 mg/kg, compared with positive control group
Description: 4. Suppressing Effect on Mouse IgE-stimulated Footpad Edema Reaction
Suppression on footpad edema caused by IgE antibody as an allergic stimulant was studied by the following method. Groups of C57BL/6 male mice (9- to 11-week old) each consisting of five mice were used for the test. Anti-DNP-BSA IgE serum was subcutaneously administered in a volume of 20 μl to right hind leg footpad of each mouse one day before the test. A test compound was suspended or dissolved in purified water containing 0.5% methylcellulose and orally administered to the test animals at 0.1 to 500 mg/0.2 ml/kg. To the control group, purified water containing 0.5% methylcellulose was administered in a similar manner, which was not added with the test compound. Two hours after the administration of the test compound, 0.2 ml of a solution of DNP-BSA dissolved in physiological saline (Otsuka Pharmaceutical) at 2.5 μg/ml was intravenously administered. The thickness of right hind leg footpad was measured by using a digital thickness gauge (MITSUTOYO) 10, 15, 20, and 30 minutes after the administration of DNP-BSA. A difference of the thickness of footpad measured above and the thickness before the administration of the test compound measured beforehand was regarded as a thickness of edema.
For the thickness of the edema at 10, 15, 20 and 30 minutes after the DNP-BSA administration, a graph was prepared indicating time in abscissa and the edema thickness in ordinate, and edema thickness AUC […] was obtained by calculation according to the following equation. Edema thickness AUC (mm·minute)=1/2×10×A+5×(A+B)/2+5×(B+C)/2+10×(C+D)/2 • A: Edema thickness 10 minutes after DNP-BSA administration • B: Edema thickness 15 minutes after DNP-BSA administration • C: Edema thickness 20 minutes after DNP-BSA administration • D: Edema thickness 30 minutes after DNP-BSA administration
A suppressing ratio on edema of a test compound was obtained by calculation in accordance with the following equation. Edema suppression ratio (%)=[1−B/A]×100 • A: Edema thickness AUC of positive control • B: Edema thickness AUC of test compound administered group (2) Measurement Results

Row | Compound | inhibition at 0.4 µM [1] | inhibition at 0.4 µM [2] | inhibition at 0.4 µM [3] | suppression of footpad edema caused by zymosan [4] | suppression of footpad edema caused by IgE stimulation [5]
1 | O=C(O)CCc1ccc(OCc2ccc(F)cc2)c(-c2ccc3[nH]ccc3c2)c1 [Compound 146, 3-[4-(4-fluorophenylmethyloxy)-3-(1H-indol-5-yl)phenyl]propionic acid] | ≥ 50% | ≥ 50% | ≥ 50% | suppressed footpad edema | suppressed the footpad edema
2 | O=C(O)CCc1ccc(OCC2CC3CCC2C3)c(-c2ccc3[nH]ccc3c2)c1 (stereo not shown) [Compound 177, 3-[4-(bicyclo[2,2,1]hept-2-ylmethyloxy)-3-(1H-indol-5-yl)phenyl]propionic acid] | ≥ 50% | ≥ 50% | ≥ 50% | suppressed footpad edema | suppressed the footpad edema
3 | CC(C)C(C)COc1ccc(CCC(=O)O)cc1-c1ccc2[nH]ccc2c1 (stereo not shown) [Compound 181, 3-[4-(2,3-dimethylbutyloxy)-3-(1H-indol-5-yl)phenyl]propionic acid] | ≥ 50% | ≥ 50% | ≥ 50% | suppressed footpad edema | suppressed the footpad edema
4 | CCCCOc1ccc(COc2ccc(CCC(=O)O)cc2-c2ccc3[nH]ccc3c2)cc1 [Compound 186, 3-{4-[4-(butyloxy)phenylmethyloxy]-3-(1H-indol-5-yl)phenyl}propionic acid] | ≥ 50% | ≥ 50% | ≥ 50% | suppressed footpad edema | suppressed the footpad edema
5 | O=C(O)CCc1ccc(OCCCc2ccccc2)c(-c2ccc3[nH]ccc3c2)c1 [Compound 220, 3-[3-(1H-indol-5-yl)-4-(3-phenylpropyloxy)phenyl]propionic acid] | ≥ 50% | ≥ 50% | ≥ 50% | suppressed footpad edema | suppressed the footpad edema
6 | CN(CCOc1ccc(CCC(=O)O)cc1-c1ccc2[nH]ccc2c1)c1ccccc1 [Compound 229, 3-{3-(1H-indol-5-yl)-4-[2-(N-phenyl-N-methylamino)-ethyloxy]phenyl}propionic acid] | ≥ 50% | ≥ 50% | ≥ 50% | suppressed footpad edema | suppressed the footpad edema
7 | O=C(O)CCc1ccc(OCC2CCCCC2)c(-c2ccc3[nH]ccc3c2)c1 [Compound 231, 3-[4-cyclohexylmethyloxy-3-(1H-indol-5-yl)phenyl]propionic acid] | ≥ 50% | ≥ 50% | ≥ 50% | suppressed footpad edema | suppressed the footpad edema
8 | Cn1ccc2cc(-c3cc(CCC(=O)O)ccc3OCC3CCCCC3)ccc21 [Compound 233, 3-[4-cyclohexylmethyloxy-3-(1-methyl-1H-indol-5-yl)phenyl]propionic acid] | ≥ 50% | ≥ 50% | ≥ 50% | suppressed footpad edema | suppressed the footpad edema
9 | CCn1ccc2cc(-c3cc(CCC(=O)O)ccc3OCC3CCCC3)ccc21 [Compound 236, 3-[4-cyclopentylmethyloxy-3-(1-ethyl-1H-indol-5-yl)phenyl]propionic acid] | ≥ 50% | ≥ 50% | ≥ 50% | suppressed footpad edema | suppressed the footpad edema
10 | O=C(O)CCc1ccc(OCC2CCCC2)c(-c2ccc3c(ccn3CCO)c2)c1 [Compound 243, 3-{4-cyclopentylmethyloxy-3-[1-(2-hydroxyethyl)-1H-indol-5-yl]phenyl}propionic acid] | ≥ 50% | ≥ 50% | ≥ 50% | suppressed footpad edema | suppressed the footpad edema
11 | Cn1ccc2cc(-c3cc(CCC(=O)O)ccc3OCc3ccccc3Cl)ccc21 [Compound 245, 3-[4-(2-chlorophenylmethyloxy)-3-(1-methyl-1H-indol-5-yl)phenyl]propionic acid] | ≥ 50% | ≥ 50% | ≥ 50% | suppressed footpad edema | suppressed the footpad edema
12 | CCn1ccc2cc(-c3cc(CCC(=O)O)ccc3OC3CCCCC3)ccc21 [Compound 248, 3-[4-cyclohexyloxy-3-(1-ethyl-1H-indol-5-yl)phenyl]propionic acid] | ≥ 50% | ≥ 50% | ≥ 50% | suppressed footpad edema | suppressed the footpad edema
13 | O=C(O)CCc1cc(F)c(OCC2CCCC2)c(-c2ccc3[nH]ccc3c2)c1 [Compound 261, 3-[4-cyclopentylmethyloxy-3-fluoro-5-(1H-indol-5-yl)phenyl]propionic acid] | ≥ 50% | ≥ 50% | ≥ 50% | suppressed footpad edema | suppressed the footpad edema
14 | O=C(O)CCc1ccc(OCC2CCCC2)c(-c2ccc3sccc3c2)c1 [Compound 281, 3-[3-(benzo[b]thiophen-5-yl)-4-cyclopentylmethyloxyphenyl]propionic acid] | ≥ 50% | ≥ 50% | ≥ 50% | suppressed footpad edema | suppressed the footpad edema
15 | Nc1nc2ccc(-c3cc(CCC(=O)O)ccc3OCC3CCCCC3)cc2s1 [Compound 289, 3-[3-(2-aminobenzothiazol-6-yl)-4-cyclohexylmethyloxyphenyl]propionic acid] | ≥ 50% | ≥ 50% | ≥ 50% | suppressed footpad edema | suppressed the footpad edema
16 | Nc1nc2ccc(-c3cc(CCC(=O)O)ccc3OC3CCCC3)cc2s1 [Compound 293, 3-[3-(2-aminobenzothiazol-6-yl)-4-cyclopentyloxyphenyl]propionic acid] | ≥ 50% | ≥ 50% | ≥ 50% | suppressed footpad edema | suppressed the footpad edema
17 | O=C(O)CCc1ccc(OCC2CCCC2)c(-c2ccc3ncsc3c2)c1 [Compound 299, 3-[3-(benzothiazol-6-yl)-4-cyclopentylmethyloxyphenyl]propionic acid] | ≥ 50% | ≥ 50% | ≥ 50% | suppressed footpad edema | suppressed the footpad edema
